Patent US12516019B2, “Amphoteric compounds” (Eastman Chemical Company, priority 2015, dated 2026)

Columns and labels:
[1] = Critical micelle concentration from surface tension (Wilhelmy plate, K100C Tensiometer); type: physicochemical; details: deionized water, ambient temperature
Experimental: The critical micelle concentration (CMC) is an important characteristic of a surfactant, and the CMC values were determined for the amphoteric compounds of formula 1. The CMC is defined as the concentration at which micelle formation first begins, and for surface tension determination of CMC, is typically assigned as the concentration of the intersection of two straight lines through the data, where the first line is the linear portion of the initial decline in surface tension with increasing surfactant concentration, and the second is the line of constant surface tension.
The critical micelle concentration was determined from plots of surface tension as a function of the logarithm of active surfactant concentration. Surface tension was measured via the Wilhelmy plate technique. In this method, the downward force of a rigorously clean plate probe that just contacts the liquid surface of the test sample is measured, and the surface tension is calculated from knowledge of the contact angle the liquid makes with the probe surface and the length of the probe plate.
A K100C Tensiometer (Kruss GmbH) was used to measure surface tension of solutions in a glass sample vessel. All measurements were made under ambient temperature conditions.
The tensiometer was equipped with a computer-controlled microdispensing and aspirating system to automate surfactant concentration adjustments of the test solution while maintaining constant solution volume between successive measurements. A roughened platinum plate probe was used. Cleanliness of probe, sample vessel, and microdispensing system was verified after cleaning between samples by measuring the surface tension of pure deionized water run through the system as a control.
100 mL of the 1 mg/L surfactant solution was added to the clean sample vessel and placed in the instrument. The plate probe was rinsed with deionized water and flame treated to combust off residual organic impurities, then mounted in position in the tensiometer. The experiment was initiated and run through the LabDesk version 3.2.2 (Kruss GmbH) software.
The surface tension measurements were run sequentially (and automatically) from most dilute to most concentrated by incrementally injecting known volume aliquots of the 10,000 mg/L surfactant solution into the sample, homogenizing the sample after injection by stirring for 30 seconds via a magnetic stir bar in the solution, and then aspirating out equal volume that was added to the sample vessel to keep the total sample volume constant for each measurement.
The sample vessel was then automatically moved into measurement position, and the surface tension measurement was made and recorded. This sequence was repeated until all concentrations had been measured.
The active surfactant concentration range spanned from 1 mg/L to 5000 mg/L over 50 concentration increments, equally spaced on a logarithmic scale over the full range of concentrations measured.
The sample at each concentration was measured 10 times, and the average of the 10 measures was plotted against the logarithm of the surfactant concentration.
After completing the full range of concentrations, the software provided best-fit lines to estimate CMC, and these regression lines were manually adjusted as needed to give the broadest range of linear behavior for each line.

[2] = Foam height test, Standard Test Method for Foaming Properties of Surface-Active Agents (ASTM 1173-07); type: physicochemical; details: 49° C.; for Foam height at time t = 0: t = 0 min; for Foam height at time t = 1: t = 1 min; for Foam height at time t = 2: t = 2 min; for Foam height at time t = 3: t = 3 min; for Foam height at time t = 4: t = 4 min; for Foam height at time t = 5: t = 5 min
Description: The Standard Test Method for Foaming Properties of Surface-Active Agents (ASTM 1173-07) for 0.1 wt % and 1.0 wt % was used to determine the foaming properties of the amphoteric compounds of the formula 1 described herein. This method generates foam under low-agitation conditions and is generally used for moderate- and high-foam surfactants. This test gathers data on initial foam height and foam decay. Foam decay provides information on foam stability.
The apparatus for carrying out this test includes a jacketed column and a pipet. The jacketed column serves as a receiver, while the pipet delivers the surface-active solution.
Solutions of each surface-active agent to be measured were prepared in borosilicate glass jars a day ahead of time, using ambient temperature ingredients, and were slowly rolled overnight to homogenize. The solutions were then removed from the rollers and equilibrated in a constant temperature bath (49° C.+/−1° C.) for at least 1 hour before measurement. The solution of the amphoteric compound to be tested was added to the receiver (50 mL) and to the pipet (200 mL). The pipet was positioned above the receiver and opened. As the solution fell and made contact with the solution in the receiver, foam was generated. When the pipet was empty, the time was noted and an initial foam height was recorded. The foam height was recorded each minute for five minutes. Exact size specifications for the glassware can be found in ASTM 1173-07. The foam height results for each amphoteric compound 1 and representative standards are listed below in Tables 1 (0.1% concentration) and 2 (1% concentration).

| Compound | Critical micelle concentration (CMC) [1] | Foam height at time t = 0 ([2]; 1 g/L (0.1 weight %)) | Foam height at time t = 1 ([2]; 1 g/L (0.1 weight %)) | Foam height at time t = 2 ([2]; 1 g/L (0.1 weight %)) | Foam height at time t = 3 ([2]; 1 g/L (0.1 weight %)) | Foam height at time t = 4 ([2]; 1 g/L (0.1 weight %)) | Foam height at time t = 5 ([2]; 1 g/L (0.1 weight %)) | Foam height at time t = 0 ([2]; 10 g/L (1.0 weight %)) | Foam height at time t = 1 ([2]; 10 g/L (1.0 weight %)) | Foam height at time t = 2 ([2]; 10 g/L (1.0 weight %)) | Foam height at time t = 3 ([2]; 10 g/L (1.0 weight %)) | Foam height at time t = 4 ([2]; 10 g/L (1.0 weight %)) | Foam height at time t = 5 ([2]; 10 g/L (1.0 weight %)) |
| --- | --- | --- | --- | --- | --- | --- | --- | --- | --- | --- | --- | --- | --- |
| CCCCCCCCCCCC[N+](C)(C)CCCS(=O)(=O)[O-] [N-lauryl-N,N-dimethyl-3-ammonio-1-propanesulfonate, reference compound] | 962 mg/L | – | – | – | – | – | – | – | – | – | – | – | – |
| CCCCCCCCCCCCNC(=O)CCC[N+](C)(C)CC(O)CS(=O)(=O)[O-] (stereo not shown) [Example 12, 3-((4-laurylamino-4-oxobutyl)dimethylammonio)-2-hydroxy-propanesulfonate] | 80.9 mg/L | 160 mm | 157 mm | 155 mm | 153 mm | 151 mm | 150 mm | 182 mm | 180 mm | 178 mm | 177 mm | 176 mm | 175 mm |
| CCCCCCCCCCCCNC(=O)CCCC[N+](C)(C)CC(O)CS(=O)(=O)[O-] (stereo not shown) [Example 21, 3-((5-laurylamino-5-oxopentyl)dimethylammonio)-2-hydroxypropanesulfonate] | 104.5 mg/L | 157 mm | 156 mm | 153 mm | 151 mm | 149 mm | 147 mm | 173 mm | 171 mm | 170 mm | 170 mm | 170 mm | 169 mm |
| CCCCCCCCCCCCOC(=O)CCC[N+](C)(C)CC(O)CS(=O)(=O)[O-] (stereo not shown) [Example 4, 3-(3-(Lauryloxycarbonylpropyl)dimethylammonio)-2-hydroxypropanesulfonate] | – | 142 mm | 139 mm | 135 mm | 132 mm | 129 mm | 127 mm | 173 mm | 170 mm | 167 mm | 162 mm | 158 mm | 154 mm |
| CCCCCCCCCCCCOC(=O)CCCC[N+](C)(C)CC(O)CS(=O)(=O)[O-] (stereo not shown) [Example 9, 3-(4-(Lauryloxycarbonylbutyl)dimethylammonio)-2-hydroxypropanesulfonate] | – | 185 mm | 175 mm | 173 mm | 170 mm | 170 mm | 170 mm | 195 mm | 190 mm | 180 mm | 180 mm | 180 mm | 180 mm |
| cocamidopropyl betaine [reference compound] | 12.7 mg/L | 160 mm | 159 mm | 158 mm | 158 mm | 158 mm | 158 mm | 174 mm | 172 mm | 171 mm | 171 mm | 170 mm | 170 mm |
| (3-Lauryloxycarbonylpropyl)dimethylammonioacetate [Example 3] | 24.2 mg/L | 171 mm | 170 mm | 170 mm | 169 mm | 169 mm | 169 mm | 165 mm | 162 mm | 160 mm | 158 mm | 158 mm | 156 mm |
| (5-Laurylamino-5-oxopentyl)dimethylammonioacetate [Example 20] | – | 180 mm | 175 mm | 170 mm | 170 mm | 170 mm | 170 mm | 175 mm | 170 mm | 170 mm | 170 mm | 165 mm | 160 mm |
| (4-Laurylamino-4-oxobutyl)dimethylammonioacetate [Example 11] | 76.5 mg/L | 174 mm | 172 mm | 171 mm | 171 mm | 170 mm | 170 mm | 182 mm | 180 mm | 179 mm | 178 mm | 178 mm | 177 mm |
| (4-Lauryloxycarbonylbutyl)dimethylammonioacetate [Example 8] | – | – | – | – | – | – | – | 185 mm | 175 mm | 170 mm | 170 mm | 170 mm | 165 mm |
| cocamidopropyl hydroxysultaine [reference compound] | 9.5 mg/L | – | – | – | – | – | – | – | – | – | – | – | – |
